2 molecules from patent US8273686B2, “Method for combating phytopathogenic fungi” (priority 2006, dated 2012) can be followed below.

Common to all, as to type: cell-based
The subject of assay [1] is Ganoderma sp. Kind of assay: Mycelium growth inhibition on PDA Petri dishes. The following applies: mean of 3 repetitions. On the procedure: (§1) The concentrations of active ingredient added to the culture medium were determined previously by diffusion of the product in agar inoculated for the corresponding species.
(§2) Subsequently the diameters of the pathogen growths (mm) were determined visually until the […] (pathogen in PDA medium without fungicide) fully colonised the Petri dishes.
(§3) Levels of inhibition of mycelium growth for different fungal species in relation to fungicide concentration. The results are expressed as percentages and represent the mean of 3 repetitions

The subject of assay [2] is Phaeomoniella chlamydospora. Kind of assay: Microtitre test, growth inhibition (optical density 405 nm). The following applies: tested at 125, 31, 8, 2, 0.5 and 0.125 ppm a.i.; 7 and 14 days' incubation at 23° C. On the procedure: (§4) The products were provided as technical quality active ingredient. Stock solutions of the active ingredients were prepared in DMSO at a concentration of 10 000 ppm a.i. All products were tested at 125, 31, 8, 2, 0.5 and 0.125 ppm a.i.; the DMSO concentration was the same in all dilutions.
(§5) Spore suspensions of the test fungi were prepared in a yeast extract, Bacto peptone and glycerol liquid medium.
(§6) Equal volumes of test compound and spore suspension were added, in triplicate, to the wells of 96-well microtitre plates. The optical densities of the wells were measured with the aid of a photometer at 405 nm immediately after preparation.
(§7) Incubation of the plates followed at 23° C. Further optical density measurements were made after 7 and 14 days' incubation. Growth in the treated wells was compared with the growth in the control (=water) wells.

Assay [3] has as its system Phaeoacremonium aleophilum. The description is as above. The following applies: tested at 125, 31, 8, 2, 0.5 and 0.125 ppm a.i.; 7 and 14 days' incubation at 23° C. On the procedure: as §4, §5, §6, §7
For assay [4], the system named is Fomitiporella vitis. Kind of assay: Mycelium growth inhibition on PDA Petri dishes. The following applies: mean of 3 repetitions. The procedure:
(§8) Test pathogens were Phaeoacremonium sp., Phaemoniella chlamydospora and Fomitiporella vitis (pathogens associated with the Esca disease) as well as Cylindrocarpon destructans and Botryosphaeria sp. (pathogens frequently isolated from vine wood with Esca symptoms).
as §1, §2, §3

The subject of assay [5] is Phaeoacremonium sp. Kind of assay: Mycelium growth inhibition on PDA Petri dishes. As to conditions: mean of 3 repetitions. On the procedure:
as §8, §1, §2, §3

In assay [6] the test system is Phaeomoniella chlamydospora. Briefly: Mycelium growth inhibition on PDA Petri dishes. The following applies: mean of 3 repetitions. On the procedure: as §8, §1, §2, §3
Assay [7] deals with Botryosphaeria sp. Kind of assay: Mycelium growth inhibition on PDA Petri dishes. As to conditions: mean of 3 repetitions. The procedure: as §8, §1, §2, §3
For assay [8], the system named is Cylindrocarpon destructans. Briefly: Mycelium growth inhibition on PDA Petri dishes. The following applies: mean of 3 repetitions. The procedure: as §8, §1, §2, §3
The mark [9] stands for this setting: 0.1 ppm active ingredient (as Comet).
Where [10] appears, read: 1 ppm active ingredient (as Comet).
Where [11] appears, read: 10 ppm active ingredient (as Comet).
[12] abbreviates: 100 ppm active ingredient (as Comet).
Setting [13] is: 1000 ppm active ingredient (as Comet).

As to `COC(=O)N(OC)c1ccccc1COc1ccn(-c2ccc(Cl)cc2)n1` [pyraclostrobin], the Percentage mycelium inhibition stood at 21.18% in assay [1] (setting [9]); 65.88% in assay [1] (setting [10]); 91.37% in assay [1] (setting [11]); 100.00% in assay [1] (setting [12]); 100.00% in assay [1] (setting [13]); 46.47% in assay [4] (setting [9]). In addition, the Percentage mycelium inhibition in assay [4] (setting [10]) turned out to be 92.75%; in assay [4] (setting [11]) it was 98.62%; in assay [4] (setting [12]), 100.00%; in assay [4] (setting [13]) it was 100.00%; in assay [5] (setting [9]) it was 35.65%; in assay [5] (setting [10]), 61.00%. The Percentage mycelium inhibition in assay [5] (setting [11]) was determined as 77.27%; in assay [5] (setting [12]) it was 88.28%; in assay [5] (setting [13]) it was 100.00%; in assay [6] (setting [9]), 64.91%; in assay [6] (setting [10]) it was 93.57%; in assay [6] (setting [11]) it was 95.32%. Also, the Percentage mycelium inhibition in assay [6] (setting [12]) amounted to 96.49%; in assay [6] (setting [13]), 100.00%; in assay [7] (setting [9]), 23.14%; in assay [7] (setting [10]), 48.04%; in assay [7] (setting [11]) it was 66.08%; in assay [7] (setting [12]), 88.43%. The Percentage mycelium inhibition in assay [7] (setting [13]) amounted to 100.00%; in assay [8] (setting [9]) it was 33.33%; in assay [8] (setting [10]), 69.61%; in assay [8] (setting [11]) it was 86.67%; in assay [8] (setting [12]), 90.59%; in assay [8] (setting [13]) it was 100.00%. Also, the “inhibition of the growth of Phaeomoniella chlamydospora” value in assay [2] is reported as “strong to very strong”. For the same molecule, the “inhibition of the growth of Phaeoacremonium aleophilum” value in assay [3] is recorded as “strong to very strong”.
Turning to `CO/N=C(/C(=O)OC)c1ccccc1COc1ccccc1C` [kresoxim-methyl], the “inhibition of the growth of Phaeomoniella chlamydospora” value in assay [2] is “strong to very strong”.
